# Patent EP1073891B1, “METHOD OF PREDICTING RECEPTOR MODULATING ACTIVITY” (Duke University, priority 1998, dated 1999)
# pEC50: −log10 of the molar value. Where two headings read alike, the source gives them in different places.
# Columns and labels:
# [1] = In vivo tissue pharmacology of antiestrogen (uterus, bone, cardiovascular system); settings: assayed in vivo
# MCF-7 cell xenografts = experiment: Growth of MCF-7 cell xenografts in A-thymic nude mice; format: in vivo
# ER = format: cell-based
# ERβ [2] = target: T1, ERβ (Homo sapiens, UniProt Q92731); experiment: Time resolved fluorescence (TRF) binding of europium-streptavidin peptide conjugates in the presence of modulators; parameters: purchased PanVera Corporation, Madison, WI; settings: for pEC50 / Equiv.: ERβ; for Equiv.: positive: % of maximum stimulation by the reference modulator, negative: % of reduction by ICI 182,780
# ERβ [3] = target: T1, ERβ; experiment: Phage ELISA / fingerprint on ER immobilized on biotinylated ERE (Examples 2.3-2.5); settings: probe α/β I (LXXLL motif)
# Protocol: Immulon 4 96-well plates were coated with streptavidin in 0.1 sodium bicarbonate.
# All of the phage were classified based on their ability to bind to ER a and ER β, in the presence or absence of SERMs. These assays were conducted by phage ELISA. In essence, plastic plates were coated with streptavidin (sigma). Biotinylated-EREs (see above) were conjugated to the solid-phase streptavidin, and ER to the ERE. Bound phage were detected using horseradish peroxidase-labeled anti-(M13 phage) antibodies.
# The ER was then incubated with 100µl TBST or TBST containing 1 µM of the appropriate modulator. Phage (40µl), from a 5 hour culture grown in DH5αF' cells, was added directly to the wells and incubated 30 minutes at room temperature. Unbound phage were then removed by 5 washes with TBST. Bound phage were detected using an anti-M13 antibody coupled to horseradish peroxidase (HRP). Assays were developed with 2,2'-azinobis(3-ethylbenzothiazoline)-6 sulfonic acid (ABTS) and hydrogen peroxide for 10 minutes and then stopped by the addition of 1% SDS.
# The binding activity is indicated on a semiquantitative scale of 0 to 7+.
# The probes were used to fingerprint the interaction of ER α and ER β with a variety of different SERMs by the assay method previously described (using ERE). Next, we evaluated the binding of each of the probes to ERα and ERβ in the presence of a variety of ER ligands that have distinct biological activities. The goal was to determine if each of the ligands would induce a conformational change in the ER that would alter the binding pattern of the probes, thus producing a "fingerprint" for each compound. […] Buffer only (apo-receptor) and progesterone were included as controls.
# Phage were amplified from plaques in DHSα F' for 5 hours. Bound phage were detected as described previously. Assays were developed with ABTS (2,2'-azinobis(3-ethylbenzthiazoline-sulfonic acid) for 10 minutes.
# ERα [4] = target: T2, ERα (Homo sapiens, UniProt P03372); format: binding; parameters: purchased PanVera Corporation, Madison, WI; settings: Table 14, ERα and ERβ; progesterone 1 µM
# T2 sequence (P03372 1-595): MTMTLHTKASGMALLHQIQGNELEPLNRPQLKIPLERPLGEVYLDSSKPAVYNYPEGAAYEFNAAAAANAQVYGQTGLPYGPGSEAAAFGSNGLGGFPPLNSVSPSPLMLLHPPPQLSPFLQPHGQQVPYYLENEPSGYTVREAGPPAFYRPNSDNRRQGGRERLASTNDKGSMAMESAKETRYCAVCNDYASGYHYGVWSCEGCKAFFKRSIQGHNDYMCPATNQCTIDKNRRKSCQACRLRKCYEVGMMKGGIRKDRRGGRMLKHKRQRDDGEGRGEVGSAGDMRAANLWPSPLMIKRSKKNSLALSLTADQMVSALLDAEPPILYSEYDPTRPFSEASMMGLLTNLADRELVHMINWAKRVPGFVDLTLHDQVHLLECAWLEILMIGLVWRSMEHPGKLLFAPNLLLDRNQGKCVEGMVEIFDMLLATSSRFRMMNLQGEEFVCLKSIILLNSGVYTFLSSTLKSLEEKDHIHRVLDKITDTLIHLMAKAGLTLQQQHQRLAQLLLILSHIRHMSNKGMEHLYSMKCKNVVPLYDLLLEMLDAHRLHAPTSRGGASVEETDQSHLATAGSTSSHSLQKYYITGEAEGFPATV
# Protocol: Oligonucleotides corresponding to the vitellogenin ERE, biotin-[…] (forward) and biotin-[…] (reverse), were synthesized by Genosys.
# These assays were conducted by phage ELISA.
# Res. Treat. […] Jordan, Pharmacological Rev. […] And Metab.
# Bound phage were detected as described previously.
# full length ER-α = target: T3, full length ER-α (Homo sapiens, UniProt P03372); experiment: Affinity selection and phage ELISA of X7-LXXLL-X7 library on estradiol treated ER (Example 101.1); format: binding
# T3 construct: Baculovirus expressed full length ER-α; host or cells: baculovirus expression
# T3 sequence (P03372 1-595): T2 sequence (P03372 1-595)
# Protocol: M13 phage-based random peptide libraries were incubated with target proteins in the wells, ER binding phage were retained while the unbound phage were washed away. Bound phage were eluted by low pH buffer, amplified in DH5αF' cells and subjected to subsequent round of selection. The selection processes were repeated 2-3 times to enrich for EB bonding phage. Individual phage were plaque purified, amplified and their binding characteristics were examined by ELISA.
# ERα [5] = target: T2, ERα; experiment: Phage ELISA on plastic-immobilized ER, with or without estradiol, agonists or SERMs (Examples 1.3a, 1.4); format: binding; parameters: purchased PanVera Corporation, Madison, WI
# Source text: ER alpha (Panvera Corp.) was immobilized on Immulon 4 plastic plates (Dynatech) for the phage affinity selection as described in patent application Fowlkes, 09/050,359. Peptide sequences obtained for binding to the unliganded (unactivated) receptor are listed below (Table 1).
# Phage expressing distinct peptide sequences were classified according to a number of different parameters.
# The effect of agonists and SERMs on the binding of phage from each of the 5 classes described above was investigated.
# The following fingerprints were identified (Table 6). The data are based on the relative change in binding (as determined by an increase or decrease in absorbance) compared to the unliganded receptor. The number of + or - signs indicates the degree and the direction of the change in signal; +/- indicates no significant change.
# full length ER = target: T4, full length ER (Homo sapiens, UniProt P03372); experiment: Mapping of probe binding sites, phage ELISA on directly immobilized receptor
# T4 construct: amino terminal domain (1-184) fused to GST, and the full length ER; purchased PanVera Corporation, Madison, WI
# T4 sequence (P03372 1-595): T2 sequence (P03372 1-595)
# Protocol: Assays were conducted using the format described in Example 2.3, except that the domains were directly immobilized on the plastic surface of the well. Assays were conducted as for phage ELISA (Ex. 2.3).
# [6] = target: T5, estrogen receptor α (ERα) (Homo sapiens, UniProt P03372); experiment: LexA yeast two hybrid, β-galactosidase activity assay (Example 3); format: cell-based
# T5 construct: The full length estrogen receptor was subcloned in frame into the EcoRI and XhoI sites of pJG4-5; expressed in transfected cells; host or cells: Saccharomyces cerevisiae EGY48
# T5 sequence (P03372 1-595): T2 sequence (P03372 1-595)
# Source text: The LexA system that we employ utilizes a bacterial DNA binding protein domain, LexA, and a bacterially derived transcriptional activation sequence, B42. Proteins or peptides of interest are fused in frame with these domains and expressed using episomal plasmids in a yeast cell. The interactions between these proteins/peptides of interest are registered by monitoring the level of the reporter gene product, β-galactosidase, by an enzymatic assay. The differences in the levels of β-galactosidase activities reflect the relative strengths of the protein interactions.
# The yeast strains used in this study was EGY48 (MAT a trp1 his3 ura3 leu2::61exAops-LEU2) purchased from OriGeneTechnologies for yeast two hybrid analysis. This strain contains 6 LexA operators upstream of the LEU2 gene in the yeast genome and provides high sensitivity in detecting protein-protein interactions in the LexA two hybrid system. The plasmids used in this study were pEG202 (LexA-DNA binding domain), pJG4-5 (B42-activation domain), and the plasmid containing a β-galactosidase reporter, pJK103 (OriGene Technologies). The full length estrogen receptor was subcloned in frame into the EcoRI and XhoI sites of pJG4-5 to generate an ERα-B42 activation domain fusion. ERα was subcloned in the activation domain plasmid because ERα was able to autoactivate reporters when fused to the LexA DNA binding domain.
# The peptide sequences used in this study were generated from synthetic oligos filled in by T7 Sequenase (Life Science) and subcloned into the EcoRI-XhoI sites of pEG202. The synthetic oligos were: [formula] [formula] [formula] [formula] The complementary synthetic oligo used to generate double stranded DNA was 3'XhoPrim, 5'-[…]. Each 5'-oligo was annealed to the 3'-oligo by heating to 90 °C for 15 minutes and cooled slowly to 35 °C. T7 sequenase was added and the fill-in reaction allowed to proceed at 30 °C for 30 minutes. The reaction was terminated by heat denaturing the enzyme at 65 °C for 1 hour, restriction digests were performed and the resulting DNA fragments subcloned into pEG202 to generate peptide-LexA DNA binding domain fusions.
# The culture was diluted to ~2x10^6 cells/ml in the same media and allowed to grow at 30 °C until the cultures reached a density of ~1x10^7 cells/ml (∼4 hours). The yeast cells were pelleted by centurifugation, washed with extraction buffer (60 mM Na2HPO4, 40 mMNaH2PO4, 10 mM KCl, 1 mM MgSO4, 1mM PMSF, 7 mM 2-mercaptoethanol) and suspended in 200 µl of extraction buffer. 100 µl of acid-washed glass beads were added and cells were lysed by vigorous agitation for 10 minutes at 4 °C. Cellular debris was pelleted by centrifugation and the supernatant transferred to a clean tube. 10 µg of total cellular protein was diluted into complete Z buffer (60 mM Na2HPO4, 40 mMNaH2PO4 , 10 mM KCl, 1 mM MgSO4, 7 mM 2-mercaptoethanol) to a volume of 100 µl in a 96-well microplate. 80 µg of o-nitrophenyl-β-D-pyranoside (ONPG) in 20 µl was added to each well to initiate color development.
# 10µg of each protein extract was assayed for β-galactosidase activity using o-nitrophenyl-b-D-pyranoside as substrate. Activity units are defied as 1000* Abs405/minutes/mg/protein.
# Values are in beta-galactosidase units (MOD/min/mg)
# T1 sequence (Q92731 whole entry): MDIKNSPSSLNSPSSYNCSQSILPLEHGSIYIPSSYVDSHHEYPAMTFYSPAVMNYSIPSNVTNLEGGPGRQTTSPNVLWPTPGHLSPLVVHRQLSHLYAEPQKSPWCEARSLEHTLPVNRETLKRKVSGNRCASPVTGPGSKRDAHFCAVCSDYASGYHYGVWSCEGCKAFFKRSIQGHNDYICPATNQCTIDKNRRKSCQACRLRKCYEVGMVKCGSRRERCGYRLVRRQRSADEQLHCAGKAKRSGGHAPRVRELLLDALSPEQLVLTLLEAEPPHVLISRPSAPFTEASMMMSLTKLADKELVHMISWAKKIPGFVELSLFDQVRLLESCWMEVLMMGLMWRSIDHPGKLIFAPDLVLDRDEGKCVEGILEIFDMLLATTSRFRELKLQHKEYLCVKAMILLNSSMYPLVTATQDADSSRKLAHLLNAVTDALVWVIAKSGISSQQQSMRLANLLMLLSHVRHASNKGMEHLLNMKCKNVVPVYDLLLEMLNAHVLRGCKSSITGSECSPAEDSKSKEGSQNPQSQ
compound,measurement,setting,value
CC/C(=C(\c1ccccc1)c1ccc(/C=C/C(=O)O)cc1)c1ccccc1 [GW5638],activity in bone and the cardiovascular system,[1],functions as an estrogen
same,uterotrophic activity,[1],does not display uterotrophic activity
same,growth of MCF-7 cell xenografts,MCF-7 cell xenografts,effectively inhibited
same,AF-1 and AF-2 agonist activity,ER,devoid of AF-1 and AF-2 agonist activity
same,inhibition of tamoxifen partial agonist activity,ER; assayed in vitro,inhibits tamoxifen partial agonist activity under all conditions examined
"CCN(CC)CCOc1ccc(C(=C(Cl)c2ccccc2)c2ccccc2)cc1 [Clomiphene, clomiphene]",binding of the β I probe to ER β,"ERβ [2]; TRF binding assay, in the presence of the compound",reduced
same,pEC50,ERβ [2]; peptide probe α/βIII,7.09
same,Equiv.,ERβ [2]; peptide probe α/βIII,34%
same,Equiv.,ERβ [2]; peptide probe α/βIV,0%
same,pEC50,ERβ [2]; peptide probe α/βV,6.82
same,Equiv.,ERβ [2]; peptide probe α/βV,13%
same,pEC50,ERβ [2]; peptide probe βI,6.87
same,Equiv.,ERβ [2]; peptide probe βI,-62%
same,pEC50,ERβ [2]; peptide probe βIII,6.91
same,Equiv.,ERβ [2]; peptide probe βIII,-61%
same,binding of the probe α/β I to ER β in the presence of the ligand,ERβ [3],prevented the binding
CC(=O)[C@H]1CC[C@H]2[C@@H]3CCC4=CC(=O)CC[C@]4(C)[C@H]3CC[C@]12C [progesterone],binding pattern of the probes (fingerprint) compared with buffer,ERα [4],indistinguishable from that produced by buffer
SSNHQSRLIELLSR [ER4],binding to ligand occupied ER,"full length ER-α; agonist, partial agonist or antagonist occupied ER",binds to agonist occupied ER but not partial agonist- or antagonist-occupied ER
"CC/C(=C(\c1ccc(O)cc1)c1ccc(OCCN(C)C)cc1)c1ccccc1 [4-OH Tamoxifen, 4-OH tamoxifen]",binding of the β I probe to ER β,ERβ [2],enhanced
same,binding of the probe α/β I to ER β in the presence of the ligand,ERβ [3],prevented the binding
SSYQWETHSDKWRSR,binding of ER in presence of estradiol,ERα [5],weak binders
SSEYCFYWDSAHCSR [α I],binding to the full length protein,full length ER,binds only to the full length protein
SSVTKKALTIAKDSR,binding of ER in presence of estradiol,ERα [5],weak binders
O=C(c1ccc(OCCN2CCCCC2)cc1)c1c(-c2ccc(O)cc2)sc2cc(O)ccc12 [raloxifene],binding of the β I probe to ER β,ERβ [2],reduced
same,binding of the probe α/β I to ER β in the presence of the ligand,ERβ [3],prevented the binding
GHEPLTLLERLLMDDKQAV [Peptide F6],"Peptide Interactions with ER Alpha, beta-galactosidase units, value",[6]; 4-hydroxy Tamoxifen,20267 MOD/min/mg
same,"Peptide Interactions with ER Alpha, beta-galactosidase units, value",[6]; Estradiol,38883 MOD/min/mg
same,"Peptide Interactions with ER Alpha, beta-galactosidase units, value",[6]; No Addition,30983 MOD/min/mg
same,"Peptide Interactions with ER Alpha, beta-galactosidase units, value",[6]; Tamoxifen Citrate,11947 MOD/min/mg
same,affinity for ERα,full length ER-α; affinity-selected peptide,high affinity
